Assay results: US20250120967A1, “TYROSINE KINASES INHIBITORS AND USES THEREOF” (GREAT NOVEL THERAPEUTICS BIOTECH & MEDICALS CORPORATION, priority 2023, published 2025)

What was measured:
Experiment in all cases: Tyrosine kinase inhibition assay
Assay type in all cases: biochemical
Conditions in all cases: single concentration 1.0 μM, read-out: percent inhibition
[1] = target: SRMS (Srm) (Homo sapiens, UniProt Q9H3Y6)
How it was run: (§1)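 Peptide/kinase mixtures and ATP (apparent Km) are combined in 50 mM HEPES pH 7.5 kinase buffer with 10 mM MgCl2, 1 mM EGTA and 0.01% BRIJ-35, compound at 1.0 μM in 1% DMSO. Development reagent is then added and percent inhibition calculated.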

[2] = target: FGFR3 (Homo sapiens, UniProt P22607)
Sequence of FGFR3 (P22607 23-806): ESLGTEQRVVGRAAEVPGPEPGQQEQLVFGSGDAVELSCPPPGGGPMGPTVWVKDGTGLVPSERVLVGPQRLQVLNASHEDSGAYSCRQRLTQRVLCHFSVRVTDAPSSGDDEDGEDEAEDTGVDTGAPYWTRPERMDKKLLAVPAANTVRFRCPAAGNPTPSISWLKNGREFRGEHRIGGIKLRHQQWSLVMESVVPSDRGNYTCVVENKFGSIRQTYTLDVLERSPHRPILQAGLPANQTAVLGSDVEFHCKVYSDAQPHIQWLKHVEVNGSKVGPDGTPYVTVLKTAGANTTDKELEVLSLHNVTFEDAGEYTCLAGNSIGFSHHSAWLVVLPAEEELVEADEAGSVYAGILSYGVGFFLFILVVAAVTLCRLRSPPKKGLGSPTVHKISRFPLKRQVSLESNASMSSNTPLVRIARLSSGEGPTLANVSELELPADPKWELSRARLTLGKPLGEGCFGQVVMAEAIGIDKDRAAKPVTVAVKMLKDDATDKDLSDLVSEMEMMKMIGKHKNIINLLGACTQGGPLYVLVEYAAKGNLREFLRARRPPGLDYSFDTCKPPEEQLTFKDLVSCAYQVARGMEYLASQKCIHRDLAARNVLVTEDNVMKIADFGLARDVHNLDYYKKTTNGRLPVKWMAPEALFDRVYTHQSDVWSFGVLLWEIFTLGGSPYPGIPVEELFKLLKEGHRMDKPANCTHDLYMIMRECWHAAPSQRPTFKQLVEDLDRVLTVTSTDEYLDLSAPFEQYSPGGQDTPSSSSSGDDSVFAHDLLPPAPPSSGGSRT
How it was run: as §1

[3] = target: T1, TEC (Homo sapiens, UniProt P42680)
T1 sequence (P42680 1-631): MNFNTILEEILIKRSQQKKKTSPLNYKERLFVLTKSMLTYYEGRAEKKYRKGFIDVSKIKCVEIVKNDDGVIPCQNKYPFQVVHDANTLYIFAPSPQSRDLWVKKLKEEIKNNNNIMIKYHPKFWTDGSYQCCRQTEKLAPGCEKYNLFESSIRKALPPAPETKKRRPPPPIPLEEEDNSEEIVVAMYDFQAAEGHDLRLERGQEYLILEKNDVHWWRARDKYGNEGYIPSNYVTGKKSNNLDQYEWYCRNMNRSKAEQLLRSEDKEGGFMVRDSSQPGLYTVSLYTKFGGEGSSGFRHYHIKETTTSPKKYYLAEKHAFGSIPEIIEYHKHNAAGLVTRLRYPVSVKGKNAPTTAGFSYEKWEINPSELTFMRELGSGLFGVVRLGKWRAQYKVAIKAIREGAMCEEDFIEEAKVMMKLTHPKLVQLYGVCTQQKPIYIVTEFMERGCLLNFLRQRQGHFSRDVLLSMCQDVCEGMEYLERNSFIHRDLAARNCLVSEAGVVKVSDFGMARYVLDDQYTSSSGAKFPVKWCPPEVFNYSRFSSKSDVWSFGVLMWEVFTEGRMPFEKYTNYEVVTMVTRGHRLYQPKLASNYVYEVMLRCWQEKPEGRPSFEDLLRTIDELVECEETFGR
How it was run: as §1

[4] = target: PIK3CD/PIK3R1 (p110 delta/p85 alpha) (Homo sapiens, UniProt O00329)
Sequence of PIK3CD/PIK3R1 (p110 delta/p85 alpha) (O00329 whole entry): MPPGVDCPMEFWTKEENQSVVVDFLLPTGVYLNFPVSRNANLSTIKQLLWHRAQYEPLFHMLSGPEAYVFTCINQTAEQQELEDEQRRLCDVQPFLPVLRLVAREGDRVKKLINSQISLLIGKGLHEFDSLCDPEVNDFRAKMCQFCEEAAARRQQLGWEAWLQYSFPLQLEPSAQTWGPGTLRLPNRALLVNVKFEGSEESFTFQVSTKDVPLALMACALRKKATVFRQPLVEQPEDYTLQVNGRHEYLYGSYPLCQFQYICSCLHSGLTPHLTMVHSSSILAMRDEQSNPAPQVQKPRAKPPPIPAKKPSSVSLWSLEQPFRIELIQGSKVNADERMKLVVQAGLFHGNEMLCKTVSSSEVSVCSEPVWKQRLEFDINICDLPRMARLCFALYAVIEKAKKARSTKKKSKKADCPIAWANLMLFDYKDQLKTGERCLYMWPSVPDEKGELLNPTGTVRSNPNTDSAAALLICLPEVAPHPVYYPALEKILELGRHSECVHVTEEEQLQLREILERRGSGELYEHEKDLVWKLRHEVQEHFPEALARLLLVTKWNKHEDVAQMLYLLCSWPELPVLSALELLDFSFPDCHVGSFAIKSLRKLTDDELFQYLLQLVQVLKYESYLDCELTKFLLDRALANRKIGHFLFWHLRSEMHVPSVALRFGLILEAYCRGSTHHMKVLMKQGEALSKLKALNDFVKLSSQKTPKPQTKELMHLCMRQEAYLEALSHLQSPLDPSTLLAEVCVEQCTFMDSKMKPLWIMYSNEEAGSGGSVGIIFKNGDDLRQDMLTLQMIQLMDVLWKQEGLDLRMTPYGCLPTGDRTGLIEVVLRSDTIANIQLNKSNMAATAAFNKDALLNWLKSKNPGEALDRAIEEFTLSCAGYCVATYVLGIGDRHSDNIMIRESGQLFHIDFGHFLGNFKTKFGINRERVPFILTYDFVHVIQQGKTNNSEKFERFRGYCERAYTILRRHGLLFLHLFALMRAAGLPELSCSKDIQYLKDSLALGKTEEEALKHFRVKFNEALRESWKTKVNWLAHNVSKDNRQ
Sequence of PIK3CD/PIK3R1 (p110 delta/p85 alpha) (P27986 whole entry partner): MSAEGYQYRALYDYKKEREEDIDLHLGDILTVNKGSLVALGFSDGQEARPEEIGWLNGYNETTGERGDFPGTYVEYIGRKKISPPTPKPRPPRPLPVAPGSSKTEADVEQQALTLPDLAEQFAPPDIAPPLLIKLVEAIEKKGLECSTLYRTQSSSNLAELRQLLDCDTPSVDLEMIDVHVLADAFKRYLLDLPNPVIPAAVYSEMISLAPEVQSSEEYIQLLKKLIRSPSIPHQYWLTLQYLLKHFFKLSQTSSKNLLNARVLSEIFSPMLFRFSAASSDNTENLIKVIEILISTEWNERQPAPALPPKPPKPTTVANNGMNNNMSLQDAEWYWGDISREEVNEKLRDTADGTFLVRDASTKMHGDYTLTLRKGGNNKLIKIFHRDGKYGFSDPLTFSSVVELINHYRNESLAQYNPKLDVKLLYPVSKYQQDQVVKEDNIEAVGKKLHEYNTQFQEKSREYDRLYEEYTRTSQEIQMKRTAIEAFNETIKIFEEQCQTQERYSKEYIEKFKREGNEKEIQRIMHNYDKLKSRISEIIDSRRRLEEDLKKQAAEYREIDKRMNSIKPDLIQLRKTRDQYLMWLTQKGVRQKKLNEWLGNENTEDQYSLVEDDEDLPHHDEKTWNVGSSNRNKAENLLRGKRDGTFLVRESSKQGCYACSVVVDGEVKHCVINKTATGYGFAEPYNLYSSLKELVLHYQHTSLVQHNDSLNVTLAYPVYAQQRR
How it was run: as §1

[5] = target: T2, JAK3 (Homo sapiens, UniProt P52333)
T2 sequence (P52333 1-1124): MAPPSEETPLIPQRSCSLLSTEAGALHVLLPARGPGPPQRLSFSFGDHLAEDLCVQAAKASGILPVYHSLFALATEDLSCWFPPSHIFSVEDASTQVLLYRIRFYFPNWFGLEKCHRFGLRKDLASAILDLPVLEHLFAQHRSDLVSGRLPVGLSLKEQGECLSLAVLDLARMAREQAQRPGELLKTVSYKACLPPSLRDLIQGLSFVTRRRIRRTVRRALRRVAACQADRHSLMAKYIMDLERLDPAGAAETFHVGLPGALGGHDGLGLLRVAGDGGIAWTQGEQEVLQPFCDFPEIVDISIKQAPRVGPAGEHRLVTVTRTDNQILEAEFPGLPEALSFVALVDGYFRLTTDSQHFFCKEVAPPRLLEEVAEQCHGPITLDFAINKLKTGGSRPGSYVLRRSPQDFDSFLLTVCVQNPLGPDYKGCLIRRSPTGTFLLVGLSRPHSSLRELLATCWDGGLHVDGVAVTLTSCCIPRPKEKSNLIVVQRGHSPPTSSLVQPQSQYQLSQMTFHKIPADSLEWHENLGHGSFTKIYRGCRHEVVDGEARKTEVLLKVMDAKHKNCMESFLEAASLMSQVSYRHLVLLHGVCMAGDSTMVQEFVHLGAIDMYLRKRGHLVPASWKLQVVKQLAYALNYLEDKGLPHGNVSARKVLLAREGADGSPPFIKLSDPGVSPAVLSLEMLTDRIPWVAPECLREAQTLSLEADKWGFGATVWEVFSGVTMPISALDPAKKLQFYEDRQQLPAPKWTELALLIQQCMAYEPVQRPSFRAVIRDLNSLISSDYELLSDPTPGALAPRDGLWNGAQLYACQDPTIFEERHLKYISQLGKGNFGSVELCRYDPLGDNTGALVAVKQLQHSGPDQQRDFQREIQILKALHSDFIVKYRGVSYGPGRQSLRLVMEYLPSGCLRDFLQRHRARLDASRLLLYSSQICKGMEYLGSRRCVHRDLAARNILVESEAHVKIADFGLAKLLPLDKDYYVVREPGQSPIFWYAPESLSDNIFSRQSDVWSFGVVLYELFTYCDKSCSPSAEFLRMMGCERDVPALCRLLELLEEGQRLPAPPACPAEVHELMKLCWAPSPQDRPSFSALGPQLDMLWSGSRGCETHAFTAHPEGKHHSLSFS
How it was run: as §1

[6] = target: AKT3 (PKB gamma) (Homo sapiens, UniProt Q9Y243)
Sequence of AKT3 (PKB gamma) (Q9Y243 whole entry): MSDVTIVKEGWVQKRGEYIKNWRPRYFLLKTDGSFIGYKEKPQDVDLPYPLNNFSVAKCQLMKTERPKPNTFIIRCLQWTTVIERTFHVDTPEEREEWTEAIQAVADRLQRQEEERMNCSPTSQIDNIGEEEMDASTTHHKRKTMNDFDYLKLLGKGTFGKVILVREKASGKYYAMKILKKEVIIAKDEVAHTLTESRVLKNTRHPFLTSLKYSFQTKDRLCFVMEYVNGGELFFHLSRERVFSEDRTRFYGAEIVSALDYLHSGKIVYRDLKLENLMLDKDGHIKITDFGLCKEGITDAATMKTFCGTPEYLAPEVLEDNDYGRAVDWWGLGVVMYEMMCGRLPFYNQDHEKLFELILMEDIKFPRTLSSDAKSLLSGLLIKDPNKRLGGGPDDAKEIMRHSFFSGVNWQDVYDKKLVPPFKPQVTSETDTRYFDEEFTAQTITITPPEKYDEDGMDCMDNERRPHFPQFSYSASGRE
How it was run: as §1

Sequence of SRMS (Srm) (Q9H3Y6 whole entry): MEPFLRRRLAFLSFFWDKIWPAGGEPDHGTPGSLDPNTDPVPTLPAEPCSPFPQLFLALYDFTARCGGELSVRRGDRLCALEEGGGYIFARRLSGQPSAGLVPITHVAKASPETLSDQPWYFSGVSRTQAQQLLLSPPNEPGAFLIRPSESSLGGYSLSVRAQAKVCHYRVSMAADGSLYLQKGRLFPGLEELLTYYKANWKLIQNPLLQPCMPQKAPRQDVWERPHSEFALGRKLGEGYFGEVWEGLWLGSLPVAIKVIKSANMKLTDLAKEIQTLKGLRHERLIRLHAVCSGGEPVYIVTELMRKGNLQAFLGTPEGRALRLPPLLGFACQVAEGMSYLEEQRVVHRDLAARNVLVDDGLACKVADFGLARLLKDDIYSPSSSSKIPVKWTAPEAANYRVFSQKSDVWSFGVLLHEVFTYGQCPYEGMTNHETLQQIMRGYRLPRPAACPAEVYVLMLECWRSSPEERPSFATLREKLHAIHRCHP

| Compound | inhibition at 1 µM [1] [%] | inhibition at 1 µM [2] [%] | inhibition at 1 µM [3] [%] | inhibition at 1 µM [4] [%] | inhibition at 1 µM [5] [%] | inhibition at 1 µM [6] [%] |
| --- | --- | --- | --- | --- | --- | --- |
| COc1cc2nccc(Oc3ccc(NC(=O)C4(C(=O)Nc5ccc(F)cc5)CC4)cc3)c2cc1OC [Cabozantinib, reference compound] | 96 | 16 | 5 | -1 | 9 | 8 |
| COc1cc2nccc(Oc3ccc(NC(=O)C4(NC(=O)c5ccc(F)cc5)CC4)cc3F)c2cc1OC [Cbo-02, N-(1-((4-((6,7-diMethoxyquinolin-4-yl)oxy)-3-fluorophenyl)carbamoyl)cyclopropyl)-4-fluorobenzamide] | 12 | 4 | 29 | -6 | 11 | 5 |
| COc1cc2nccc(Oc3ccc(NC(=O)C4(NC(=O)c5ccc(F)cc5)CC4)cc3F)c2cc1Oc1ccc(N)cc1F [Cbo-10] | 74 | 19 | 80 | 12 | 9 | 7 |
| COc1cc2nccc(Oc3ccc(NC(=O)C4(NC(=O)c5ccc(F)cc5)CC4)cc3F)c2cc1Oc1c(F)cc(N)cc1F [Cbo-14] | 84 | 19 | 77 | 16 | 21 | 6 |
| COc1cc2nccc(Oc3ccc(NC(=O)C4(C(=O)Nc5ccc(F)cc5)CC4)cc3F)c2cc1Oc1ccc(N)cc1F [Cbo-23] | 99 | 13 | 37 | 2 | 17 | -1 |
